Measured values: US20160185797A1, “ALKYNYL ALCOHOLS AND METHODS OF USE” (Genentech, Inc., priority 2013, published 2016)
Where two headings read alike, the source gives them in different places.

Legend:
[1] = target: T1, nuclear factor-kappa B (NF-kB)-inducing kinase (NIK) (Homo sapiens, UniProt Q99558); assay: NIK enzyme inhibition assay (Transcreener ADP fluorescence polarization, NIK ADP-FP); assay type: biochemical
T1 construct: made in house; host or cells: baculovirus-infected insect cells
T1 sequence (Q99558 whole entry): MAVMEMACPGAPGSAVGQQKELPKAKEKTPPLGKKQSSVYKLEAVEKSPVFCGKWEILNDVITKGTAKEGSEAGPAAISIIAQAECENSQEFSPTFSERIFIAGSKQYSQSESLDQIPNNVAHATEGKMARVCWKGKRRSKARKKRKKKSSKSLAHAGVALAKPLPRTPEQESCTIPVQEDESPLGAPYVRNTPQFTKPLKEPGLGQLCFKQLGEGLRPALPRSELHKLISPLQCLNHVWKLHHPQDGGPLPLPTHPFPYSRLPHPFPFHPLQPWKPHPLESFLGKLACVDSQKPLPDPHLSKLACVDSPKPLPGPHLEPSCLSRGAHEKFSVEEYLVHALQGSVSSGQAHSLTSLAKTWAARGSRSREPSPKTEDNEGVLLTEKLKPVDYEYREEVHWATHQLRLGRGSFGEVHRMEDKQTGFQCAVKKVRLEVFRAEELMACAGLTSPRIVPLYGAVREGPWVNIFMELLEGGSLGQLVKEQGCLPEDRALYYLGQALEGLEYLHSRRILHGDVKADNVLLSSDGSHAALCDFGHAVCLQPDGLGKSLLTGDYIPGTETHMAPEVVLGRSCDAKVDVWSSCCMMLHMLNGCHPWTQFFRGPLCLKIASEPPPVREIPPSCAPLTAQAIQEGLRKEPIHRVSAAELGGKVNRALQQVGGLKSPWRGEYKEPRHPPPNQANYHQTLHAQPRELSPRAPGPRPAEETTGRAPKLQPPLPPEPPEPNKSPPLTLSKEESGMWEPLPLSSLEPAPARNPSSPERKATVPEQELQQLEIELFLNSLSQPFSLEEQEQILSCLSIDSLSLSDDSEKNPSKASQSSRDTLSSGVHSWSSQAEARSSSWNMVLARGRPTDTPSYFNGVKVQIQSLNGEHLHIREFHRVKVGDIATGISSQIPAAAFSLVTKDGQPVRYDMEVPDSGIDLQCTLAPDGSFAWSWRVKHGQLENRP

[2] = test system: REL-A (p65) nuclear translocation in HeLa cells; assay: REL-A (p65) nuclear translocation assay in HeLa cells, TNF-α stimulated (classical NF-kB signaling), high content imaging; assay type: cell-based; conditions: compound 4.5 h, then 10 ng/mL TNF-α for 30 minutes, read-out: REL-A HeLa Transloc Assay (IC50)
Procedure, shortened: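 HeLa cells in medium with 10% fetal bovine serum were exposed to compounds (0.2% DMSO final) for 4.5 hours, then stimulated with 10 ng/mL TNF-α for 30 minutes. After fixation in 4% paraformaldehyde and permeabilization with 0.1% Triton X-100, cells were stained with 400 ng/mL anti-REL-A (p65) antibody, an Alexa488 secondary and DRAQ5. Opera imaging quantified the nuclear-to-cytoplasmic signal ratio to give IC50.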

[3] = test system: p52 (NF-kB2) nuclear translocation in HeLa cells; assay: p52 (NF-kB2) nuclear translocation assay in HeLa cells, anti-lymphotoxin beta receptor antibody stimulated (non-classical NF-kB signaling), high content imaging; assay type: cell-based; conditions: 100 ng/mL anti-lymphotoxin beta receptor antibody for 5 hours, read-out: p52 HeLa Transloc Assay (IC50)
Procedure, shortened: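 HeLa cells in 10% FBS medium were treated with compound (0.2% DMSO final) and stimulated with 100 ng/mL anti-lymphotoxin beta receptor antibody for 5 h. Fixed cells were immunostained for p52 and imaged with DRAQ5 nuclear stain. Translocation is the nuclear to cytoplasmic intensity ratio, […].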

## CN1CC[C@@](O)(C#Cc2cc(F)cc(-c3nc(C(N)=O)cn4ccnc34)c2)C1=O [Example 161, 8-[3-fluoro-5-[2-[(3R)-3-hydroxy-l-methyl-2-oxo-pyrrolidin-3-yl]ethynyl]phenyl]imidazol [1,2-a]pyrazine-6-carboxamide]
[1]
  Ki: 0.33 nM
[2]; Homo sapiens, HeLa
  IC50: > 2 µM
[3]; Homo sapiens
  IC50: 445 nM

## CN1CC[C@@](O)(C#Cc2cccc(-c3nc(C(N)=O)c4ccn(C)c4n3)c2)C1=O [Example 39, 2-[3-[2-[(3R)-3-hydroxy-1-methyl-2-oxo-pyrrolidin-3-yl]ethynyl]phenyl]-7-methyl-pyrrolo[2,3-d] pyrimidine-4-carboxamide]
[1]
  Ki: 0.13 nM
[2]; Homo sapiens, HeLa
  IC50: 7.7 µM
[3]; Homo sapiens
  IC50: 20.9 nM

## CN1CC[C@@](O)(C#Cc2cccc(-c3nc(C(N)=O)cc(N4CCCC45COC5)n3)c2)C1=O [Example 21, 2-[3-[2-[(3R)-3-hydroxy-1-methyl-2-oxo-pyrrolidin-3-yl]ethynyl]phenyl]-6-(2-oxa-8-azaspiro[3.4]octan-8-yl) pyrimidine-4-carboxamide]
[1]
  Ki: 1.2 nM
[2]; Homo sapiens, HeLa
  IC50: > 20 µM
[3]; Homo sapiens
  IC50: 84.2 nM

## CN1CC[C@@](O)(C#Cc2cccc(-c3cc(N4CCCC4=O)cc(C(N)=O)n3)c2)C1=O [Example 174, 6-[3-[2-[(3R)-3-hydroxy-1-methyl-2-oxo-pyrrolidin-3-yl]ethynyl]phenyl]-4-(2-oxopyrrolidin-1-yl)pyridine-2-carboxamide]
[1]
  Ki: 0.53 nM
[2]; Homo sapiens, HeLa
  IC50: > 2 µM
[3]; Homo sapiens
  IC50: 449 nM

## CN1CC[C@@](O)(C#Cc2cccc(-c3nc(C(N)=O)c(NCC(F)(F)F)cc3F)c2)C1=O [Example 83, 5-fluoro-6-[3-[2-[(3R)-3-hydroxy-1-methyl-2-oxo-pyrrolidin-3-yl]ethynyl]phenyl]-3-(2,2,2-trifluoroethylamino) pyridine-2-carboxamide]
[1]
  Ki: 0.15 nM
[2]; Homo sapiens, HeLa
  IC50: 1 µM
[3]; Homo sapiens
  IC50: 11 nM

## CN1CC[C@@](O)(C#Cc2cccc(-c3nc(C(N)=O)cn4ccnc34)c2)C1=O [Example 48, 8-[3-[2-[(3R)-3-hydroxy-1-methyl-2-oxo-pyrrolidin-3-yl]ethynyl]phenyl] imidazo[1,2-a]pyrazine-6-carboxamide]
[1]; purified NIK 0.5 nM, 10 μM ATP, pH 7.2, Ki from Morrison's quadratic equation
  Ki: 0.39 nM
[2]
  IC50: ≥ 20 µM
[3]
  IC50: 122 nM

## CN1CC[C@@](O)(C#Cc2cccc(-c3cnc(N)c(C(N)=O)n3)c2)C1=O [Example 62, 3-amino-6-[3-[2-[(3R)-3-hydroxy-1-methyl-2-oxo-pyrrolidin-3-yl]ethynyl]phenyl] pyrazine-2-carboxamide]
[1]
  Ki: 0.11 nM
[2]; Homo sapiens, HeLa
  IC50: 1 µM
[3]; Homo sapiens
  IC50: 11.5 nM

## CN1CC[C@@](O)(C#Cc2cccc(-c3nc(N)cc(C(N)=O)n3)c2)C1=O [Example 14, 6-amino-2-[3-[2-[(3R)-3-hydroxy-1-methyl-2-oxo-pyrrolidin-3-yl]ethynyl]phenyl]pyrimidine-4-carboxamide]
[1]
  Ki: 0.38 nM
[2]; Homo sapiens, HeLa
  IC50: > 20 µM
[3]; Homo sapiens
  IC50: 665 nM

## CN1CC[C@@](O)(C#Cc2ccc(F)c(-c3ncc(N)c(C(N)=O)n3)c2)C1=O [Example 110, 5-amino-2-[2-fluoro-5-[2-[(3R)-3-hydroxy-1-methyl-2-oxo-pyrrolidin-3-yl]ethynyl]phenyl]pyrimidine-4-carboxamide]
[1]
  Ki: 0.14 nM
[2]; Homo sapiens, HeLa
  IC50: ≥ 2 µM
[3]; Homo sapiens
  IC50: 84.3 nM

## CN1CC[C@@](O)(C#Cc2cccc(-c3nc(OC4COC4)cc(C(N)=O)n3)c2)C1=O [Example 99, 2-[3-[2-[(3R)-3-hydroxy-1-methyl-2-oxo-pyrrolidin-3-yl]ethynyl]phenyl]-6-(oxetan-3-yloxy) pyrimidine-4-carboxamide]
[1]
  Ki: 0.48 nM
[2]; Homo sapiens, HeLa
  IC50: ≥ 20 µM
[3]; Homo sapiens
  IC50: 104 nM

## CN1CC[C@@](O)(C#Cc2cccc(-c3nc(C(N)=O)c(NC4COC4)cc3F)c2)C1=O [Example 79, 5-fluoro-6-[3-[2-[(3R)-3-hydroxy-1-methyl-2-oxo-pyrrolidin-3-yl]ethynyl]phenyl]-3-(oxetan-3-ylamino)pyridine-2-carboxamide]
[1]
  Ki: 0.05 nM
[2]; Homo sapiens, HeLa
  IC50: ≥ 20 µM
[3]; Homo sapiens
  IC50: 9.86 nM

## CN1CC[C@@](O)(C#Cc2cc(-c3nc(C(N)=O)c(N)cc3F)ccc2F)C1=O [Example 116, 3-amino-5-fluoro-6-[4-fluoro-3-[2-[(3R)-3-hydroxy-1-methyl-2-oxo-pyrrolidin-3-yl]ethynyl]phenyl]pyridine-2-carboxamide]
[1]
  Ki: 0.05 nM
[2]; Homo sapiens, HeLa
  IC50: 12.4 µM
[3]; Homo sapiens
  IC50: 11.6 nM

## Cc1cc(C(N)=O)nc(-c2cc(F)cc(C#C[C@]3(O)CCN(C)C3=O)c2)c1 [Example 168, 6-[3-fluoro-5-[2-[(3R)-3-hydroxy-1-methyl-2-oxo-pyrrolidin-3-yl]ethynyl]phenyl]-4-methyl-pyridine-2-carboxamide]
[1]
  Ki: 0.16 nM
[2]; Homo sapiens, HeLa
  IC50: > 2 µM
[3]; Homo sapiens
  IC50: 130 nM

## COCCNc1ncc(-c2cc(C#C[C@]3(O)CCN(C)C3=O)ccc2F)nc1C(N)=O [Example 134, 6-[2-fluoro-5-[2-[(3R)-3-hydroxy-1-methyl-2-oxo-pyrrolidin-3-yl]ethynyl]phenyl]-3-(2-methoxyethylamino) pyrazine-2-carboxamide]
[1]
  Ki: 0.09 nM
[2]; Homo sapiens, HeLa
  IC50: ≥ 2 µM
[3]; Homo sapiens
  IC50: 45.4 nM

## CN1CC[C@@](O)(C#Cc2cccc(-c3nc(C(N)=O)c4sccc4n3)c2)C1=O [Example 37, 2-[3-[2-[(3R)-3-hydroxy-1-methyl-2-oxo-pyrrolidin-3-yl]ethynyl]phenyl]thieno[3,2-d]pyrimidine-4-carboxamide]
[1]
  Ki: 0.12 nM
[2]; Homo sapiens, HeLa
  IC50: > 20 µM
[3]; Homo sapiens
  IC50: 13.9 nM

## CN1CC[C@@](O)(C#Cc2cccc(-c3ncc(NC4CC4)c(C(N)=O)n3)c2)C1=O [Example 87, 5-(cyclopropylamino)-2-[3-[2-[(3R)-3-hydroxy-1-methyl-2-oxo-pyrrolidin-3-yl]ethynyl]phenyl] pyrimidine-4-carboxamide]
[1]
  Ki: 0.14 nM
[2]; Homo sapiens, HeLa
  IC50: 1 µM
[3]; Homo sapiens
  IC50: 4 nM

## CN1CC[C@@](O)(C#Cc2cccc(-c3nc(C(N)=O)cc4c3ncn4C)c2)C1=O [Example 47, 4-[3-[2-[(3R)-3-hydroxy-1-methyl-2-oxo-pyrrolidin-3-yl]ethynyl]phenyl]-1-methyl-imidazo[4,5-c] pyridine-6-carboxamide]
[1]
  Ki: 0.94 nM
[2]; Homo sapiens, HeLa
  IC50: ≥ 20 µM
[3]; Homo sapiens
  IC50: 270 nM
